Consider 13 compounds from US20180319865A1, “Identification of Novel Small Molecule Beta2 Integrin Agonists” (Rush University Medical Center, priority 2016, published 2018).

What all share (assay type): cell-based
The target in test [1] is T1, mutant integrin CD11bE320A/CD18 (Homo sapiens, UniProt P11215, E336A).
T1 construct: expressed in transfected cells; host or cells: K562 (ATCC)
The test can be described thus: HTS cell adhesion assay, K562 E320A cells on immobilized fibrinogen. The following applies: five point dose-response. In a few lines:
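K562 cells expressing the indicated CD11b/CD18 integrin were added to wells coated with 15 μg/mL fibrinogen and incubated with compound for 30 min at 37 °C in Ca2+/Mg2+ buffer. Non-adherent cells were removed by plate inversion. Adherent cells were fixed, stained with DAPI and counted by high-content imaging, scaled from 0% (1 mM Ca2+/Mg2+) to 100% (Mn2+ activation).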

Test [2] addresses T2, wild-type integrin CD11b/CD18 (Homo sapiens, UniProt P11215).
T2 construct: expressed in transfected cells; host or cells: K562 (ATCC)
Briefly: HTS cell adhesion assay, K562 CD11b/CD18 cells on immobilized fibrinogen. Here is the method: K562 cells stably expressing CD11c/CD18 (K562 CD11c/CD18) were generated similarly. […] K562 cells stably transfected with mutant integrin CD11bE320A/CD18 (K562 E320A) were generated according to literature protocols. All cell lines were maintained in Iscove's Modified Dulbecco's Medium (IMDM) supplemented with 10% heat-inactivated fetal bovine serum, 50 IU/mL penicillin and streptomycin and 0.5 mg/mL G418.
(§1) Cell adhesion assays with immobilized ligands were performed using the general protocol previously described and as illustrated in FIG. 1 [33]. Assays with all different K562 cell lines (K562, K562 CD11b/CD18, K562 CD11c/CD18 and K562 E320A) were performed in an identical fashion. Briefly, 384-well microplates (Corning 3700) were coated with 15 μg/mL fibrinogen (Fg) ligand in PBS^++ overnight at 4° C. At the same time, anti-CD18 (IB4) mAb was also coated. Subsequently, the coated wells were washed with 1% nonfat milk in TBS at room temperature for 1 hour. Next, the wells were washed 3 times with TBS, and the coated microplates were used in the HTS assays.
(§2) K562 CD11b/CD18, K562 CD11bE320A/CD18 and K562 CD11c/CD18 cells were washed with TBS, and cells were transferred to the Fg-coated wells of microplates in the assay buffer (Ca^2+ and Mg^2+ for physiological condition, Mn^2+ as the Positive control). A 1 μL aliquot of the compounds were transferred to each washed well with multichannel pipet from the 384-well plates.
(§3) The assay plates were incubated at 37° C. in the presence of small-molecule compounds for 30 min. To dislodge the non-adherent cell, the assay plates were gently inverted and kept in inverted position for 20 min at room temperature.
(§4) The cells were fixed with 37% formaldehyde in a small volume and the plates were kept inverted for 1 h. Upon the fixation, the solutions in the well were discarded. Next, the cells were fluorescently labeled with DAPI (0.5 μM final in TBS with 0.1% Triton X-100) and the quantitated with “Opera High Content Screening System” (Perkin Elmer).
Cell-adhesion under positive and negative control conditions was used to define the activity scale; signal corresponding to the number of non-small molecule treated cells adherent in activating buffer condition (in the presence of Mn^2+ ions as agonist, PC) was considered maximum (100% binding) and the signal corresponding to the number of non-small molecule treated cells adherent in basal buffer condition (in the presence of 1 mM each of Ca^2+ and Mg^2+, NC) was considered minimum (0% binding).

Another test deals with T3, integrin CD11c/CD18 (Homo sapiens, UniProt P20702).
T3 construct: expressed in transfected cells; host or cells: K562 (ATCC)
The test can be described thus: HTS cell adhesion assay, K562 CD11c/CD18 cells on immobilized fibrinogen. The following applies: for EC50 CD11c/CD18: K562 CD11c/CD18 cells, adhesion to fibrinogen, dose-response. As for the experimental part:
K562 cells stably expressing CD11c/CD18 (K562 CD11c/CD18) were generated similarly. Mutant CD11bE320A has been described previously. K562 cells stably transfected with mutant integrin CD11bE320A/CD18 (K562 E320A) were generated according to literature protocols. All cell lines were maintained in Iscove's Modified Dulbecco's Medium (IMDM) supplemented with 10% heat-inactivated fetal bovine serum, 50 IU/mL penicillin and streptomycin and 0.5 mg/mL G418.
as §1, §2, §3, §4
Cell-adhesion under positive and negative control conditions was used to define the activity scale; signal corresponding to the number of non-small molecule treated cells adherent in activating buffer condition (in the presence of Mn^2+ ions as agonist, PC) was considered maximum (100% binding) and the signal corresponding to the number of non-small molecule treated cells adherent in basal buffer condition (in the presence of 1 mM each of Ca^2+ and Mg^2+, NC) was considered minimum (0% binding). […]
The compounds were diluted in DMSO by the final concentration 10 μM, 5 μM, 2.5 μM, 1.25 μM and 0.625 μM and stocked as sealed in 384-well plates at −80° C.

Where [3] appears, read: Table 3, adhesion to fibrinogen.
The mark [4] stands for this setting: Table 4, adhesion to fibrinogen.
Where [5] appears, read: Table 3, adhesion to fibrinogen, 5-point dose-response.
The mark [6] stands for this setting: Table 4, adhesion to fibrinogen, dose-response.

Each structure is given as a SMILES string.

`O=C(O)CCN1C(=O)/C(=C/c2ccc(-c3nc4ccccc4s3)o2)SC1=S` [Compound 2030972]: the EC50 in test [1] (setting [3]) and in test [1] (setting [4]) was 6.69 µM in each case. Further, the “EC50 CD11b/CD18” value in test [2] (setting [5]) is listed as “Very Low”; in test [2] (setting [6]) it was “N/A Very Low”. Further, the “EC50 CD11c/CD18” value on integrin CD11c/CD18 (Table 3) is given as “Very Low”; at integrin CD11c/CD18 (Table 4), “N/A Very Low”.

In the case of `C=CCn1c(SCC(=O)c2[nH]c(C)c(C(=O)OC)c2C)nc2scc(-c3ccc(OC)c(OC)c3)c2c1=O` [Compound 1745635], the EC50 in test [1] (setting [3]) and in test [1] (setting [4]) was 3.71 µM throughout. Also, the “EC50 CD11b/CD18” value in test [2] (setting [6]) is “N/A Very Low”. In addition, the “EC50 CD11c/CD18” value is recorded as “Very low” at integrin CD11c/CD18 (Table 3) and “N/A Very Low” on integrin CD11c/CD18 (Table 4).

On to `O=C(O)CCN1C(=O)/C(=C\c2ccc(-c3nc4ccccc4s3)o2)SC1=S` [Compound 2030970], for which the “EC50 E320A” value in test [1] (setting [3]) was “Very Low”. Further, the figures for the “EC50 CD11b/CD18” value in test [2] (setting [5]) and in test [2] (setting [6]) were “Very Low” and “N/A Very Low”, respectively. Also, the “EC50 CD11c/CD18” value on integrin CD11c/CD18 (Table 4) is recorded as “N/A Very Low”.

For the compound `O=C(Cn1c(=O)oc2cc(S(=O)(=O)N3CCCC3)ccc21)NC1CCCc2ccccc21` (stereo not shown) [Compound 5308150], the EC50 in test [1] (setting [3]) and in test [1] (setting [4]) was 1.26 µM throughout. Moreover, the “EC50 CD11b/CD18” value in test [2] (setting [6]) is reported as “N/A Very Low”. Moreover, the “EC50 CD11c/CD18” value at integrin CD11c/CD18 (Table 3) is “Very Low”; on integrin CD11c/CD18 (Table 4), “N/A Very Low”.

In turn, `O=C(CN1C(=O)c2ccccc2C1=O)Nc1ccc(-c2nc3ccccc3o2)cc1` [Compound 1255636] came in with an EC50 in test [1] (setting [3]) of 0.678 µM. Besides, the results for the “EC50 CD11b/CD18” value in test [2] (setting [5]) and in test [2] (setting [6]) were “Very Low” and “N/A Very Low”, respectively. Besides, the “EC50 CD11c/CD18” value at integrin CD11c/CD18 (Table 4) is “N/A Very Low”.

Turning to `COc1ccc2nc(SCC(=O)Nc3ccc4sc(C)nc4c3)c(C#N)cc2c1` [Compound 1164441], the EC50 was 4 µM in test [1] (setting [3]) and 2.77 µM at integrin CD11c/CD18.

As to `O=C(Nc1ccc2oc(-c3ccccc3F)nc2c1)c1cncc(Br)c1` [Compound 1295289], the EC50 worked out at 3.62 µM in test [1] (setting [3]) and 2.67 µM on integrin CD11c/CD18.

For `CC(=O)Nc1ccc(-c2nnc(SCC(=O)n3c4c(c5ccccc53)CCCC4)n2C)cc1` [Compound 1310712], the EC50 in test [1] (setting [3]) was 2.39 µM; at integrin CD11c/CD18 it was 1.29 µM.

As for `O=C1Nc2ccccc2SC(c2ccccc2)C1O` (stereo not shown) [Compound 3242458], the EC50 in test [1] (setting [3]) was 2.83 µM; on integrin CD11c/CD18 it was 1.89 µM.

`O=C(Nc1ccc(N2CCN(c3ccc(O)cc3)CC2)cc1)Oc1ccccc1` [Compound 1317528]: the EC50 in test [1] (setting [3]) worked out at 3.62 µM; at integrin CD11c/CD18 it was 2.14 µM.

`C=CCn1c(SCC(=O)c2ccc(CNC(C)=O)o2)nc2scc(C3CC3)c2c1=O` [Compound 2569132]: the EC50 in test [1] (setting [3]) came out at 6.29 µM; on integrin CD11c/CD18, 5.28 µM.

In the case of `CCOc1ccc(/C=c2\sc3nc(-c4ccco4)nn3c2=O)cc1OCC` [Compound 2144321], the EC50 turned out to be 6.49 µM in test [1] (setting [3]) and 5.07 µM at integrin CD11c/CD18.

As to `CCOC(=O)c1c(NC(=O)c2cc(-c3ccc(Cl)s3)nc3ccccc23)sc(C(N)=O)c1C` [Compound 2163411], the EC50 came to 6.56 µM in test [1] (setting [3]) and 1.77 µM on integrin CD11c/CD18.
